# Measurements taken from patent publication US20220323795A1, “COMBINATION OF CICLOPIROXOLAMINE AND PIROCTONE OLAMINE FOR COMBATING DANDRUFF” (PIERRE FABRE DERMO-COSMETIQUE, priority 2019, published 2022).
# Where two headings read alike, the source gives them in different places.
# What was measured:
# M. globosa (IP2387.96) [1] = experiment: Minimum inhibitory concentration (MIC) by micromethod in liquid medium; type: cell-based, Malassezia globosa; conditions: product alone
# Description: (§1) The strains originate from the collection of the Institut Pasteur (Fungi collection, Paris France) for M. globosa (IP2387.96) and from the collection of CBS-KNAW for M. restricta (CBS7877). These strains represent and correspond to the majority of strains involved in dandruff. The strains are incubated for 5 days at 30° C. on modified Dixon agar under aerobic conditions. The inoculation suspensions are prepared in sterile distilled water and are concentrated to 10^7 CFU/ml. The determination of the minimum inhibitory concentration (MIC) is performed by micromethod in a liquid medium. 100 μl of liquid culture medium is deposited in each well of a sterile 96-well microplate. 100 μl of the solutions to be tested is deposited in the first well of a line of the plate. Dilutions by a factor of 2 are then carried out for wells 1 to 10. The test suspensions of each microorganism are prepared immediately before use in Tryptone salt. 100 μl is deposited in each well of a second microplate, with the exception of column 11. All of the first plate is inoculated using a Denley multipoint inoculate, from the second microplate. After incubation, the MIC are defined as the largest dilution with the absence of visible growth. Columns 11 and 12 serve respectively as a negative and positive control for growth.
# (§2) The products tested are: • ciclopiroxolamine, at 3% (wt/wt) with sterile distilled water, • piroctone olamine at 0.3% (wt/wt) with 10% ethanol, • ketoconazole (positive control) at 1000 μg/ml (wt/wt) with 10% DMSO, • piroctone olamine/ciclopiroxolamine combinations, with respective concentrations of 0.15% and 0.75%.
# (§3) The solutions are prepared at the time of the test and used immediately. An ethanol control was produced, solution at 10%.
# (§4) The synergistic effect of two products is determined by calculating the synergy index (FIC, Fractional Inhibitory Concentration).
# (§5) FIC Index=(MIC product A combined)/(MIC product alone)+(MIC product B combined)/(MIC product B alone).
# (§6) The maximum test concentration corresponds to the concentration of the parent solution/2.
# M. globosa (IP2387.96) [2] = experiment: Minimum fungicide concentration (MFC) by subculturing the MIC microplates on agar medium; type: cell-based, Malassezia globosa; conditions: product alone
# Description: as §1, §2
# (§7) The determination of the minimum fungicide concentrations (MFC) is carried out by subculturing the MIC microplates on agar medium, using the Denley multipoint inoculator. After incubation, the MFC are defined as the largest dilution with the absence of visible growth. All the tests were carried out in duplicate.
# M. restricta (CBS7877) [3] = experiment: Minimum inhibitory concentration (MIC) by micromethod in liquid medium; type: cell-based, Malassezia restricta
# Description: as §1, §2, §3, §4, §5, §6
# M. restricta (CBS7877) [4] = experiment: Minimum fungicide concentration (MFC) by subculturing the MIC microplates on agar medium; type: cell-based, Malassezia restricta
# Description: as §1, §2, §7
# Malassezia globosa = experiment: Fungicidal activity, log reduction of colonies after contact time; type: cell-based; conditions: PO 0.3%, CPO 1.5%, ketoconazole 2%, PO/CPO 0.3%/1.5%, 10^7 CFU/ml
# Description: (§8) The products to be tested alone and combined at the defined concentrations are placed in contact with a suspension of Malassezia containing 10^7 CFU/ml for a contact time of 5 minutes, 15 minutes and 30 minutes. After each contact time, a sample is taken, then diluted and filtered on a cellulose membrane. Each membrane is then deposited on the agar medium (Dixon) and incubated at 30° C. After incubation, the colonies are counted.
# (§9) The products tested are: • ciclopiroxolamine, at 1.5% (wt/wt) diluted with sterile distilled water, • piroctone olamine at 0.3% (wt/wt) dissolved in ethanol, then addition of water for injectable preparations (final ethanol concentration of 9%), • ketoconazole (positive control) at 2% (wt/wt) dissolved in DMSO, then addition of water for injectable preparations (final concentration of DMSO 9%). • piroctone olamine/ciclopiroxolamine combinations, with respective concentrations of 0.3% and 1.5%.
# (§10) The solutions are prepared at the time of the test and used immediately.
# Malassezia restricta = experiment: as above; type: cell-based; conditions: PO 0.3%, CPO 1.5%, ketoconazole 2%, PO/CPO 0.3%/1.5%, 10^7 CFU/ml
# Description: as §8, §9, §10
# [5] = Malassezia globosa, read-out: MIC
# [6] = Malassezia globosa, read-out: MFC
# [7] = Malassezia restricta, CBS7877, product alone, read-out: MIC
# [8] = Malassezia restricta, CBS7877, product alone, read-out: MFC
MIC (M. globosa (IP2387.96) [1]; [5]) [µg/mL],MIC (M. restricta (CBS7877) [3]; [7]) [µg/mL],MIC (M. globosa (IP2387.96) [1]) [µg/mL],MIC (M. globosa (IP2387.96) [1]; % (wt/wt)),MIC (M. restricta (CBS7877) [3]; product alone) [µg/mL],"MIC (M. restricta (CBS7877) [3]; product alone, % (wt/wt))",SMILES,MFC (M. globosa (IP2387.96) [2]; [6]) [µg/mL],MFC (M. restricta (CBS7877) [4]; [8]) [µg/mL],Log Reduction (Malassezia globosa; contact time 5 minutes),Log Reduction (Malassezia globosa; contact time 15 minutes),Log Reduction (Malassezia globosa; contact time 30 minutes),Log Reduction (Malassezia restricta; contact time 5 minutes),Log Reduction (Malassezia restricta; contact time 15 minutes),Log Reduction (Malassezia restricta; contact time 30 minutes),MFC (M. globosa (IP2387.96) [2]) [µg/mL],MFC (M. globosa (IP2387.96) [2]; % (wt/wt)),MFC (M. restricta (CBS7877) [4]; product alone) [µg/mL],"MFC (M. restricta (CBS7877) [4]; product alone, % (wt/wt))"
0.98,0.49,,,,,"CC(=O)N1CCN(c2ccc(OCC3COC(Cn4ccnc4)(c4ccc(Cl)cc4Cl)O3)cc2)CC1 (centres unmarked) [Keto, ketoconazole]",1.94,0.49 to 0.98,1.47,1.29,1.19,0.85,1.12,1.09,,,,
,,23,2.3 × 10^−3%,23,2.3 × 10^−3%,"Cc1cc(CC(C)CC(C)(C)C)n(O)c(=O)c1.NCCO (centres unmarked) [PO, piroctone olamine]",,,0.36,0.61,1.24,1.19,1.28,1.73,23,2.3 × 10^−3%,23,2.3 × 10^−3%
29,15,,2.9 × 10^−3%,,1.5 × 10^−3%,"Cc1cc(C2CCCCC2)n(O)c(=O)c1 [CPO, ciclopiroxolamine]",29,15,2.45,3.88,>4.22,1.99,3.3,>4.17,,2.9 × 10^−3%,,1.5 × 10^−3%
